Values of other authors, collected in US6511676B1 (priority 1999, dated 2003).

Legend:
testicular cancers = conditions: in vivo
[1] = tested on: epithelial ovarian carcinoma; conditions: oral, 61 patients with cis- or carboplatin resistance

SMILES	testicular cancers cured (testicular cancers)	objective response rate [1]
N.N.[Cl][Pt][Cl] [cisplatin, Cis-diamminedichloroplatinum(II)]	More than 90%	
CN(C)c1nc(N(C)C)nc(N(C)C)n1 [hexamethylmelamine]		14%
